Source: patent publication US20260132129A1 (Genesis Therapeutics, Inc., priority 2022, published 2026)

Target: T1, PI3Kα H1047R (T47D cells) (Homo sapiens, UniProt P42336, H1047R)
T1 construct: endogenous in cells; host or cells: T47D cells
Experiment: PI3Kα cellular assay: pAKT HTRF in T47D cells after EGF stimulation
Format: cell-based
Conditions: for IC50: T47D cells (PI3Kα H1047R), pAKT S473 HTRF, EGF stimulation; for T47D pAKT S473 HTRF IC50 (H1047R): T47D (H1047R) selectivity over SKBR3 (WT): selectivity of T47D (H1047R) over SKBR3 (WT) pAKT IC50
In short: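 T47D cells (PIK3CA H1047R) serum-starved 16 h, then treated 1 h at 37 °C with compound (10,000 nM top, 3-fold steps to 0.5 nM). After 10 min stimulation with 20 ng/mL EGF, cells were lysed and pAKT measured by HTRF.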

T1 sequence (P42336 whole entry H1047R): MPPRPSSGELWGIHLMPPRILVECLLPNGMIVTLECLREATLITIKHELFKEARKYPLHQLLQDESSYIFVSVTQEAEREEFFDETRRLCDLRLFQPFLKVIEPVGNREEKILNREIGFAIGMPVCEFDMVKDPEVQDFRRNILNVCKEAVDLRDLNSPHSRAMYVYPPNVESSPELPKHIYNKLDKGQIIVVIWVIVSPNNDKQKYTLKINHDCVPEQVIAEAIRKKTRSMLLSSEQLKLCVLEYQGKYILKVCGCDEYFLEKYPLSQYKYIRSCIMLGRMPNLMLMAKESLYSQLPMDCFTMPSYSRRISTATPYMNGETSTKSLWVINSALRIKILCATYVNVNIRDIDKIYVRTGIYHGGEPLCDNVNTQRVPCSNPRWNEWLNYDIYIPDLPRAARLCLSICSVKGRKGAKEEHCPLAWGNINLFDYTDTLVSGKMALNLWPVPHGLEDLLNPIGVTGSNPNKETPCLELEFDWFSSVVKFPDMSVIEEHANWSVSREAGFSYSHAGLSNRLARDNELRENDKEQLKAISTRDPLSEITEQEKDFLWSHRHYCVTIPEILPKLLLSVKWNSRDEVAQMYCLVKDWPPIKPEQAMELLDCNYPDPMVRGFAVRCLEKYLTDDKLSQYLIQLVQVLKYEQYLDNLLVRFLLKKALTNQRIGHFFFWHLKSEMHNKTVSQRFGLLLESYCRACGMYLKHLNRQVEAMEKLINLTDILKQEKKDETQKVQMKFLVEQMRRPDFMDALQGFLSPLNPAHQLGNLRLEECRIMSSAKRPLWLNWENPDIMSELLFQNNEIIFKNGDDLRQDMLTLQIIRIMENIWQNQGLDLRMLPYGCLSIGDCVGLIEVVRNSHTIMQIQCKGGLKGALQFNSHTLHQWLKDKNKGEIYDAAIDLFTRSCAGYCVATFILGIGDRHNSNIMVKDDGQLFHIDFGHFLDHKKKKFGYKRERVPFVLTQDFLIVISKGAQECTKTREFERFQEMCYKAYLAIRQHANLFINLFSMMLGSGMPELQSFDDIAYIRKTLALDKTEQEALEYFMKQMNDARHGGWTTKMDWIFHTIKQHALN
T1 sequence (P27986 whole entry partner): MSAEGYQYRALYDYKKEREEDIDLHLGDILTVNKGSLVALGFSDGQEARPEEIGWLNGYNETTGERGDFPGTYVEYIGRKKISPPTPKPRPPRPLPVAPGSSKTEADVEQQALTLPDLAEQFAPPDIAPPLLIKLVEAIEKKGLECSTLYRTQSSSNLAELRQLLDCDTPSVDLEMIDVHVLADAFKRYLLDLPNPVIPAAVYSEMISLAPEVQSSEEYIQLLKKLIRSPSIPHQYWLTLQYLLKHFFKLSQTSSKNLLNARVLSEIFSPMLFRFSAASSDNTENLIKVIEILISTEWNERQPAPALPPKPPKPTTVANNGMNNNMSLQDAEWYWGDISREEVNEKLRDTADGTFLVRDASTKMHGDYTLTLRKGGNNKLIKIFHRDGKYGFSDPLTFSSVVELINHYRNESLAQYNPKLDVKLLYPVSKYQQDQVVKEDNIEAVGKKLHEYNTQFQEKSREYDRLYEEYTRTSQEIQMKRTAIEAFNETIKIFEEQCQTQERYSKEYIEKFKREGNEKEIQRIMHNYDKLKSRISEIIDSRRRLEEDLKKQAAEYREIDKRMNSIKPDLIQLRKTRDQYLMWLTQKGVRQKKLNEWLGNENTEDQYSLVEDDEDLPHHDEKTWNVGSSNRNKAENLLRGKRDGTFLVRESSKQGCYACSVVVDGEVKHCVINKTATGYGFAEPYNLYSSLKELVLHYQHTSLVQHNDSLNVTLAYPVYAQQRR

Compound	IC50 [nM]	T47D pAKT S473 HTRF IC50 (H1047R): T47D (H1047R) selectivity over SKBR3 (WT)
Cc1cc(C(C)Nc2ccccc2C(=O)O)c2nc(-n3cc(C(N)=O)c4ccccc43)cc(=O)n2c1 (stereo not drawn) [Compound 771]	500 to 2000	B (B denotes 20-fold≥value>5-fold)
Cc1cc(C(C)Nc2ccccc2C(=O)O)c2nc(-n3cnc4cc(O)ccc43)cc(=O)n2c1 (stereo not drawn) [Compound 773]	500 to 2000	B (B denotes 20-fold≥value>5-fold)
Cc1cc(C(C)Nc2cccc3c2=NCN=3)c2nc(N3CCOCC3)cc(=O)n2c1 (stereo not drawn) [Compound 782]	> 2000	C (C denotes ≤5-fold)
Cc1cc([C@@H](C)NC2=C(C(=O)O)C=CCC2)c2nc(-c3ccc(CC4CCN(C(=O)C5CC5)CC4)nc3)cc(=O)n2c1 [Compound 783]	> 2000	C (C denotes ≤5-fold)
Cc1cc([C@H](C)NC2=C(C(=O)O)C=CCC2)c2nc(-c3ccc(CC4CCN(C(=O)C5CC5)CC4)nc3)cc(=O)n2c1 [Compound 784]	> 2000	C (C denotes ≤5-fold)
Cc1cc([C@H](C)Nc2ccccc2C(=O)O)c2nc(-c3ccc4c(c3)c(N)nn4C)cc(=O)n2c1 [Compound 786]	> 2000	C (C denotes ≤5-fold)
Cc1cc([C@@H](C)Nc2ccccc2C(=O)O)c2nc(-c3ccc4c(c(N)nn4C)c3C)c(C)c(=O)n2c1 [Compound 787]	> 2000	C (C denotes ≤5-fold)
Cc1cc(C(C)Nc2ccccc2C(=O)O)c2nc(-c3ccc4c(c3)c(=O)[nH]n4C)cc(=O)n2c1 (stereo not drawn) [Compound 790]	> 2000	C (C denotes ≤5-fold)

The remaining lines, values ahead:

IC50 [nM]	T47D pAKT S473 HTRF IC50 (H1047R): T47D (H1047R) selectivity over SKBR3 (WT)	Compound
100 to 500	A (A denotes >20-fold)	Cc1cc(C(C)Nc2ccccc2C(=O)O)c2nc(-c3ccc4c(c3)c(C(F)F)nn4C)cc(=O)n2c1 (stereo not drawn) [Compound 769]
> 2000	C (C denotes ≤5-fold)	Cc1cc([C@H](C)Nc2ccccc2C(=O)O)c2nc(-n3cc(C(N)=O)c4ccccc43)cc(=O)n2c1 [Compound 772]
> 2000	C (C denotes ≤5-fold)	Cc1cc([C@H](C)Nc2ccccc2C(=O)O)c2nc(-n3cnc4cc(O)ccc43)cc(=O)n2c1 [Compound 774]
< 100	A (A denotes >20-fold)	Cc1cc([C@@H](C)Nc2ccccc2C(=O)O)c2nc(-c3ccc4c(c3)c(C)c(C)n4C)cc(=O)n2c1 [Compound 775]
> 2000	C (C denotes ≤5-fold)	CC1=CC2C(=O)C=C([C@H]3CC[C@H](CC4CC[C@H](O)C4)CC3)N=C2C([C@H](C)Nc2ccccc2C(=O)O)=C1 (stereo partly drawn) [Compound 778]
100 to 500	A (A denotes >20-fold)	Cc1cc(C(C)Nc2ccccc2C(=O)O)c2nc(N3C[C@H](C)C[C@H](C(F)F)C3)cc(=O)n2c1 (stereo partly drawn) [Compound 781]
< 100	A (A denotes >20-fold)	Cc1cc([C@@H](C)Nc2ccccc2C(=O)O)c2nc(-c3ccc4c(c3)c(N)nn4C)c(C)c(=O)n2c1 [Compound 785]
100 to 500	A (A denotes >20-fold)	Cc1cc([C@H](C)Nc2ccccc2C(=O)O)c2nc(-c3ccc4c(c(N)nn4C)c3C)c(C)c(=O)n2c1 [Compound 788]
> 2000	C (C denotes ≤5-fold)	CCC(=O)Nc1ccc(C(=O)O)c(NC(C)c2cc(C)cn3c(=O)cc(N4CCOCC4)nc23)c1 (stereo not drawn) [Compound 791]
> 2000	C (C denotes ≤5-fold)	CC(=O)Nc1nn(C)c2ccc(-c3cc(=O)n4cc(C)cc(C(C)Nc5ccccc5C(=O)O)c4n3)cc12 (stereo not drawn) [Compound 792]
